# Assay results taken from patent US20230190887A1, “TARGETING G3BP AGGREGATION TO PREVENT NEURODEGENERATION” (priority 2019, published 2023).
# Entries after “also recorded” stand apart in the source; their conditions may differ. Where two headings read alike, the source gives them in different places.
# Key:
# [1] = test system: MN axons; type: cell-based, mouse
# [2] = test system: HB9::GFP MN axons; type: cell-based, mouse
# [3] = test system: G3BP1 aggregates in E12.5 motor neurons; assay: Endogenous G3BP1 aggregates in MPP+-treated motor neurons; type: cell-based, mouse; conditions: 100 μM MPP+ alone vs control
# Method: Previous studies have shown that, exposure of midbrain neurons results in formation of stress granules. To test whether treatment of motor neurons with mitotoxin MPP+ results in the formation of stress granules the inventors stained the MPP+-treated neurons for G3BP1 protein.
# (A) Quantification of mitotoxin/neurotoxin MPP+-induced degeneration of DIV7 E12.5 motor neuron neurites after exposure of cultures to 100 μM MPP+ and either 10 μM 190-208 G3BP1 or 168-189 control peptide. As controls, neurons treated with solvents were used. (B) Representative images of G3BP1 (green) and NF-labeled (red) E12.5 motor neurons under control or after treatment with 100 μM MPP+ [scale bar=10 μm]. (C) distribution of sizes of endogenous G3BP1 aggregate per 100 μm neurite is shown as indicated bins from motor neurons cultures as treated in (B). (N≥80 neurites over three repetitions; by one-way ANOVA with Tukey HSD post-hoc). […] (D) Endogenous G3BP1 aggregate sizes per 100 μm neurite indicated as bins for motor neurons either untreated or treated with MPP+ alone or with addition of 10 μM 190-208 G3BP1 or 168-189 control peptide. […] (N≥90 over 3 cultures; by one-way ANOVA with Tukey HSD post-hoc)
# [4] = test system: G3BP1, TIA1, FMRP, FXR, TDP43 and FUS-TLS aggregates in E18 midbrain neurons; assay: RNA binding protein aggregates along axons of MPP+-treated midbrain neurons; type: cell-based, rat; conditions: 100 μM MPP+ 6 hours
# Method: FIGS. 14A-14F show PD-causing MPP^+ increases RNA binding protein aggregation. Representative confocal images for G3BP1 (magenta), FMRP (green), FXR (red) and neurofilament immunoreactivity along axons for E18 midbrain neuron cultures (7 DIV)±100 μM MPP^+ for 6 hours are shown in FIG. 14A. […] Quantifications for colocalization of FMRP, FXR, TDP43, FUS-TLS and TIA1 with G3BP1 in axons of E18 midbrain neurons treated. as in FIG. 14A are shown as average Pearson's coefficient±SEM shown in FIG. 14E.
# [5] = test system: G3BP1 aggregates in midbrain neurons; assay: Endogenous G3BP1 aggregates in MPP+-treated midbrain neurons; type: cell-based, rat; conditions: MPP+ alone
# Source text: Given that the G3BP1 190-208 peptide prevents degeneration induced by treatment with neurotoxins such as MPP+ and Aβ oligomer and decreases G3BP1 aggregates formed due MPP+ and Aβ treatment.
# (A) Size of endogenous G3BP1 aggregates per 100 μm of neurite is shown as indicated bins from midbrain cultures under control conditions and after treatment with MPP+alone or with 190-208 G3BP1 or 168-189 peptides. (B) Size distribution of endogenous G3BP1 aggregates per 100 μm of neurite is shown from cortical neurons treated with 1 μM Aβpeptide or with […] 190-208 G3BP1 or 168-189 control peptide. Non-treated neurons were used as a control. […] (N≥90 over 3 cultures; by two-way ANOVA with Tukey HSD post-hoc).
# [6] = test system: TIA1, G3BP1 and TDP43 granules in E12.5 motor neurons; assay: Stress granule protein granules in neurites of arsenite-treated motor neurons; type: cell-based, mouse
# Source text: To further evaluate whether mutant TIA1 and TDP43 protein aggregates are affected by G3BP1 190-208 peptide, the inventors expressed the mutant proteins in embryonic motor neurons and assessed granules formed in neurites with or without arsenite treatment either in the presence of G3BP1 190-208 or control 168-189 peptide.
# FIG. 6: Cell permeable G3BP1 190-208 peptide decreases granules formed by endogenous TIA1 and TDP43 and exogenous TDP43 and TIA1 mutants in motor neurons after sodium arsenite exposure. (A) Embryonic motor neurons isolated from E12.5 mouse embryos were exposed to sodium arsenite (0.5 mM) for 30 minutes and then treated with 10 μM 190- 208 or […] peptide. After fixation endogenous TIA1 was visualized by immunostaining. The number of TIA1 granules greater than 2 μm^2 per 100 μm of neurite were measured. (B) E12.5 motor neurons were treated as described in (A) and immunostaining was used to detect endogenous G3BP1 protein. The number of G3BP1 granules greater than 2 μm^2 per 100 μm of neurite were measured. […] (C) E12.5 motor neurons expressing TIA1-GFT or ALS/FTD-associated mutants TIA1-A381T, TIA1-E384K were treated with sodium arsenite (0.5 mM) for 30 minutes followed by treatment with either 10 μM 190-208 G3BP1 or 168-189 control peptide. The number of cells containing TIA1-GFP puncta were measured 2 μm^2 per 100 μm of neurite and results are reported relative to non-treated controls. The number of TIA1-GFP granules in neurites decreased for WT and ALS/FTD mutants after treatment with 190-208 G3BP1 as compared to the 168-189 control peptide treated cells. (I)) E12.5 motor neurons expressing flag-tagged wildtype TDP43 or ALS-associated mutants TDP43-M337V and TDP43-Q331.K were treated with sodium arsenite (0.5 mM) for 30 minutes followed by treatment with either 10 μM 190-208 G3BP1 or 168189 control peptide. Flag-TDP43 was detected by immunostaining using the anti-flag-antibody. The number of flag-TDP43 granules greater than 2 μm^2 were measured per 100 μm of neurite and the results are reported relative to non-treated controls. The number of Flag-TDP43 granules in neurites were decreased after treatment with 190-208 G3BP1 peptide as compared to the 168-189 control peptide in both WT and ALS/FTD mutants expressing cells. ([…] over 3 cultures; by two-way ANOVA with Tukey HSD post-hoc),
# [7] = test system: DRG neurons; assay: Axon growth in dissociated DRG cultures; type: cell-based, rat; conditions: 10 μM Tat-fused peptide added to DRG cultures immediately after plating
# Method: Cell culture. For primary neuronal cultures, L4-5 DRG were harvested in Hybernate-A medium (BrainBits) and then dissociated as described. After centrifugation and washing in DMEM/F12 (Life Technologies), cells were resuspended in DMEM/F12, 1×N1 supplement (Sigma), 10% fetal bovine serum (Hyclone), and 10 μM cytosine arabinoside (Sigma). Dissociated DRGs were plated immediately on laminin/poly-L-lysine-coated coverslips or transfected (see below) and then plated on coated coverslips.
# […] Neurite outgrowth was assessed 24 h after addition of peptides. For the cortical cultures, 10 μM peptide was applied to the axonal compartment at 3 d in vitro (DIV) and axonal growth was assessed at 6 DIV. For iMotor neurons, 20 μM peptides were immediately added and neurite growth was assessed 24 h later.
# For neurite outgrowth, images from 60 h DRG cultures were analyzed for neurite outgrowth using WIS-Neuromath. Axon morphology was visualized using GFP and/or NF immunofluorescence as described. Differentiated hiPSC neuron image acquisition and neurite length quantification was performed using Arrayscan XTI (Thermo Fisher).
# [8] = test system: wild-type or ALS/FTD-associated mutant (P362L, A381T, E384K) TIA1-GFP in HEK cells; assay: TIA1-GFP aggregates in arsenite-treated HEK cells; type: cell-based
# Source text: The inventors tested whether the G3BP1 190-208 peptide would prevent the aggregation of granules formed by TIA1 and TDP43 mutant proteins associated with ALS and FTD. […] Next, we treated HEK cells expressing wild-type and or ALS/FTD-associated mutants (P362L, A381T, or E384K)TIA1, with arsenite a potent inducer of SG aggregation, in addition to either G3BP1 190-208 peptide or control G3BP1 168-189 peptide.
# FIG. 5: Cell permeable G3BP1 190-208 peptide decreases TIA1-GFP puncta formed due to expression of disease causing TIA1 mutants. (A) Representative images of HEK cells transfected with GFP-tagged wild-type or ALS/FTD-associated mutants (P362L, A381T, or E384K) TIA1. Arrows show TIA1-GFP puncta. (B) Quantification of the percentage of cells with TIA1-GFP puncta greater than 2 μm^2 area in transfected cells relative TIA1-WT-GFP expressing cells. Consistent with previous studies, ALS/FTD- associated TIA1 mutants show increased number of TIA1-GFP puncta as compared to WT-TIA1. (C) HEK cells expressing TIA1-GFP or ALS/FTD-associated mutants TIA1-P362L, TIA1-A381T, TIA1-E384K were treated with sodium arsenite (0.5 mM) for 30 minutes followed by treatment with either 10 μM 190-208 G3BP1 or 168-189 control peptide. The number of cells containing TIA1-GFP puncta were measured and results are reported relative to non-treated controls. Number of HEK cells with TIA1-GFP granules both for WT and ALS/FTD mutants decreased after treatment with 10 μM 190-208 G3BP1 as compared to the 168-189 control peptide treated cells. (N≥90 over 3 cultures; by two-way ANOVA with Tukey HSD post-hoc). Scale bar: 20 μm.
# [9] = test system: G3BP1-mCherry aggregates in DRG axons; assay: Live cell imaging of G3BP1-mCherry granules; type: cell-based, rat; conditions: 10 μM peptide, 15 min
# Method: Live cell imaging for G3BP1-mCherry granules. DRG neurons were transfected with G3BP1-mCherry, and 36 h later distal axons were imaged using Leica SP8X confocal microscope with environmental chamber maintained at 37° C., 5% CO2 (with 63×/1.4 NA oil immersion objective). G3BP1-mCherry signals were imaged as single optical planes in the axon shaft every 2 s for 100 frames (at 540 nm excitation and 23% white light laser power; 565-597 nm emission). To study the effect of the G3BP1 190-208 or 168-189 peptide, 10 μM FITC-conjugated peptide was added to the media and 15 min later imaging was continued.
# For quantitation of G3BP1-mCherry aggregates density and size, a 100 μm of the axon shaft was considered (≥200 μm from cell body). Thresholding was applied to acquired image sequences using ImageJ to generate binary masks.
# ImageJ particle analyzer was used for analysis. G3BP1 aggregates with area≥1 μm^2 were considered as SG-like structures. For analyzing the G3BP1 aggregate velocity, ImageJ Trackmate plug-in was used.
# [10] = applied exclusively in axons, NaAsO2 250 μM, Anisomycin 40 μM, Cycloheximide 150 μM
# [11] = local axonal administration, Anisomycin 40 μM, Cycloheximide 150 μM, NaAsO2 250 μM
molecule,measurement,setting,value
COc1ccc(C[C@H]2NC[C@H](O)[C@H]2OC(C)=O)cc1 [Anisomycin],axonal translation (OPP puncta),[1]; [10],major decrease in axonal translation
same,mitochondrial membrane potential (TMRE),[2]; [11],notable reduction in mitochondrial membrane potential
C[C@@H]1C[C@@H]([C@H](O)CC2CC(=O)NC(=O)C2)C(=O)[C@@H](C)C1 [Cycloheximide],axonal translation (OPP puncta),[1]; [10],major decrease in axonal translation
same,mitochondrial membrane potential (TMRE),[2]; [11],notable reduction in mitochondrial membrane potential
"C[n+]1ccc(-c2ccccc2)cc1 [MPP+, 1-methyl-4-phenylpyridinium, reference compound]",endogenous G3BP1 aggregates,[3],increase in G3BP1 aggregates; also recorded: formation of larger G3BP1 granules
same,"TIA1, FMRP, FXR, TDP43 and FUS-TLS colocalization with G3BP1",[4],significant increase
same,"aggregate sizes of G3BP1, TIA1, FMRP, FXR, TDP43 and FUS-TLS along axons",[4],significantly increases the aggregate sizes
same,overall levels of these proteins,[4],without any change in overall levels
same,endogenous G3BP1 aggregates,[5],increase in endogenous G3BP1 aggregates
"DDSGTFYDQTVSNDLEEHLEEP-YGNKKNNQNNN [168-189 peptide, reference compound]",number of large TIA1-GFP granules (>2 μm^2) in neurites,"[6]; WT and mutant TIA1-GFP, sodium arsenite 0.5 mM 30 minutes, then 10 μM peptide",no such effect
same,axon length,[7],lacked activity
same,size of TIA1 aggregates,"[8]; sodium arsenite 0.5 mM 30 minutes, then 10 μM peptide, WT and mutant TIA1",no such change in aggregate size
same,density of axonal G3BP1-mCherry aggregates along 100 μm axon,[9],no change in SG density
same,size of G3BP1-mCherry aggregates (SG-like structures),[9],modest but insignificant decrease in SG size
"EESEEEVEEPEENQQSPEVV-YGNKKNNQNNN (EESEEEVEEPEENQQSPEVVYGNKKNNQNNN; listed as Rattus norvegicus) [147-166, cell-permeable Tat fusion peptide corresponding to residues 147-166 of rat G3BP1]",axon length,[7],increased axon length
"sodium arsenite [NaAsO2, reference compound]",axonal translation (OPP puncta),[1],major decrease in axonal translation
same,size of endogenous TIA1 and G3BP1 aggregates,[6]; arsenite alone,increase in the size of endogenous TIA1 and G3BP1 aggregates
same,number of larger TIA1-GFP granules (>2 μm^2),"[6]; arsenite alone, WT and mutant TIA1-GFP",increase in the number of larger granules
same,number of large flag-TDP43 aggregates (>2 μm^2),"[6]; arsenite alone, WT and mutant flag-TDP43",increased number of large flag-TDP43 aggregates
same,mitochondrial membrane potential (TMRE),[2],notable reduction in mitochondrial membrane potential
same,size of TIA1 aggregates,"[8]; sodium arsenite 0.5 mM alone, WT and mutants",increases size of TIA1 aggregates
